Test results from patent US12611439B2, “Ionic self-assembling peptides” (3-D MATRIX, LTD., priority 2018, dated 2026).
Peptide text beside a SMILES is read from it.

Columns and labels:
[1] = Thixotropic measurements (storage modulus after shear); format: physicochemical; settings: 1% peptide, 0.9% NaCl, pH 7.5; 1000 1/s shear for 1 min
Procedure: Peptides formulated as aqueous solutions (200 μL), were placed between the plates of a rheometer (DHR-1, TA Instruments, 20 mm plates at a measuring geometry of 500 μm) and the sample was exposed to a fast plate rotation at 1000 s^−1 of shear rate for 1 minute and the storage modulus was measured at 1 rad s^−1 angular frequency for 10 minutes.
FIGS. 11 and 12 show the thixotropic properties of pharmaceutical compositions comprising 1% KLNL12 (SEQ ID NO:21) or 1% NLEL12 (SEQ ID NO:33), and 0.9% NaCl, at pH 7.5, after shear stress is removed. The aqueous pharmaceutical compositions were flowed at 1000 l/s of shear rate for 1 min and their storage modulus at 10 rad/s of frequency and at 0.1 Pa of stress was tested over time.

[2] = Viscosity determination at increasing shear rate (shear thinning); format: physicochemical; settings: pH 7.5
Procedure: Peptides formulated as aqueous solutions (200 μL), were placed between the plates of a rheometer (DHR-1, TA Instruments, 20 mm plates at a measuring geometry of 500 μm) and the viscosity was measured from 0.001 s^−1 to 100 s^−1 shear rate. Thixotropic Measurements
In some clinical applications, administration of pharmaceutical compositions comprising self-assembling peptides requires exposing the compositions to pressure and/or shear thinning (e.g., during injection through a syringe needle or transferred via a pump-based system). […] To determine the shear thinning properties of pharmaceutical compositions of the self-assembling peptides formulated at pH 7.5, formulations comprising varying ionic strengths were prepared using different concentrations of sodium chloride, and viscosity measured at increasing shear rates. Thixotropic properties of formulations were also determined as well as the storage modulus over time at specific frequencies and pressure.
FIGS. 6-8 show the experimentally determined viscosity of aqueous pharmaceutical compositions comprising either 1% (w/v) KLNL12 (SEQ ID NO:21), 1% (w/v) IQIK13 (SEQ ID NO:28), or 1% (w/v) NLEL12 (SEQ ID NO:33), at pH 7.5. FIGS. 9 and 10 show the experimentally determined viscosity of aqueous pharmaceutical compositions comprising either 1% KLNL12 (SEQ ID NO:21) or 1% NLEL12 (SEQ ID NO:33), and 0.9% NaCl (to mimic physiological conditions) at pH 7.5. […] That is, decreased viscosity with increasing sheer rate. This property may advantageously facilitate application and use of the pharmaceutical compositions (e.g., due to decreased viscosity while pumping) while maintaining a desirable viscosity at a site of application (e.g., where no sheer force is being applied).

[3] = Net charge of self-assembling peptides in solution; format: physicochemical; settings: for net charge as a function of pH: around neutral pH; for Net charge at pH 7.5: in solution at pH 7.5
Excerpt: Several exemplary self-assembling peptides described herein (Table 5; SEQ ID NO:21-40) were designed to have a net charge, positive or negative, when formulated at pH 7.5. In contrast, previously-described self-assembling peptides have a net zero charge at the same pH.

[4] = system: pig stomach submucosa; test: Submucosal injection in in vivo porcine model, stomach; settings: 2 mL of 0.1% (w/v) peptide, 0.9% NaCl, pH 7.5; pig stomach
Procedure: An in vivo porcine animal model was used to perform endoscopic mucosal and submucosal dissections as described in Uraoka et al. (2009) Drug Des. Devel. Ther. 2:131-8, incorporated herein by reference. Briefly, 2 mL of select peptide formulations were injected in between the […] in stomach of a pig and the submucosa was dissected using electro-knife. The gross appearance of the injection site and of dissected submucosal tissues at the injection sites were analyzed. […] Therefore, an in vivo porcine model system was used to assess the ability of these compositions to induce submucosal elevation upon injection into gastrointestinal submucosa, and the degree of tissue damage. In this model, submucosal injections with liquid compositions were performed and the morphology of the site of injection analyzed. Submucosal injection with aqueous solutions is used during the excision of lesions from the gastrointestinal tract in order to facilitate removal of the lesion by providing a safety cushion during resection (see, e.g., Kim et al. (2013) World J. Gastroenterol. 19(20): 3069-76, incorporated herein by reference). Here, aqueous pharmaceutical compositions comprising three exemplary self-assembling peptides formulated at pH 7.5: KLNL12 (SEQ ID NO:21), NLKL12 (SEQ ID NO:23) or KIQI13 (SEQ ID NO:29), were compared to an aqueous pharmaceutical composition comprising the previously described RADA16 self-assembling peptide (formulated at pH 2.5), a 0.4% solution of sodium hyaluronate (MucoUp®, Boston Scientific Japan K.K., Tokyo, Japan), and saline, pH 7.5.

[5] = Frequency sweep test (storage modulus) before and after exposure to DMEM; format: physicochemical; settings: 1% (w/v) peptide, pH 7.5
Procedure: Peptides formulated as aqueous solutions were placed between the plates of a rheometer (DHR-1, TA Instruments, 20 mm plates at a measuring geometry of 500 μm or 40 mm cone and plate at a measuring geometry of 2.0° of cone angle) and frequency stress sweep tests were performed at 0.1 Hz to 10 Hz of frequency with 0.1% of strain; measurements were performed after 2 minutes of relaxation time at 37° C. To do frequency sweep tests after exposure to Dulbecco's Modified Eagle Medium (DMEM), 10 mL of DMEM was added in chamber surrounding the plates, the sample in plates was submerged into the DMEM and the frequency test was performed as described after 20 minutes.
Rheological properties of aqueous pharmaceutical compositions comprising the exemplary self-assembling peptides KLNL12 (SEQ ID NO:21), KIQI13 (SEQ ID NO:29), or NLEL12 (SEQ ID NO:33) were determined by performing a frequency sweep test over storage modulus.
In some embodiments, peptides formulated as aqueous solutions, volume 700 μl, were placed between the plates of a rheometer (DHR-1, TA Instruments, 40 mm cone and plate at a measuring geometry of 2.0° of cone angle) and frequency sweep tests were performed at 0.1 Hz to 10 Hz of frequency with 0.1% of strain; measurements were performed after 2 minutes of relaxation time at 37° C. In some embodiments, frequency sweep tests were performed after exposure to Dulbecco's Modified Eagle Medium (DMEM), where 10 mL of DMEM was added in chamber surrounding the plates, the sample in plates was submerged into the DMEM and the frequency test was performed as described after 20 minutes.

[6] = system: porcine esophagus mucosa; test: Submucosal injection in in vivo porcine esophagus; settings: pig, in vivo
Procedure: In another embodiment, mucosal aggregation visualized as white precipitate near the injection site was evaluated in an in vivo porcine esophagus.

Row | SMILES | thixotropic properties (storage modulus over time after shear stress is removed) [1] | viscosity in response to increasing shear rate ([2]; 1% (w/v) peptide) | viscosity in response to increasing shear rate ([2]; 1% peptide, 0.9% NaCl) | net charge as a function of pH [3] | Net charge at pH 7.5 [3] | submucosal elevation after injection [4] | submucosal elevation over time compared with saline and MucoUp [4] | rheological properties (mechanical strength) before and after exposure to DMEM ([5]; 0.9% NaCl) | rheological properties (mechanical strength) before and after exposure to DMEM [5] | mucosal aggregation at injection sites [6] | Appearance of stomach mucosa ([6]; pH 7.5)
1 | CC(=O)N[C@@H](CCCCN)C(=O)N[C@@H](CC(C)C)C(=O)N[C@@H](CC(N)=O)C(=O)N[C@@H](CC(C)C)C(=O)N[C@@H](CCCCN)C(=O)N[C@@H](CC(C)C)C(=O)N[C@@H](CC(N)=O)C(=O)N[C@@H](CC(C)C)C(=O)N[C@@H](CCCCN)C(=O)N[C@@H](CC(C)C)C(=O)N[C@@H](CC(N)=O)C(=O)N[C@@H](CC(C)C)C(N)=O [KLNL12, Ac-KLNLKLNLKLNL-NH2] (Ac-KLNLKLNLKLNL-NH2) | exhibited thixotropic properties | exhibit sheer thinning | exhibit sheer thinning | about +3 | +3 | resulted in submucosal elevation | better submucosal elevation than saline and MucoUp® | increased after DMEM treatment | increased after DMEM treatment | – | –
2 | CC(=O)N[C@@H](CC(N)=O)C(=O)N[C@@H](CC(C)C)C(=O)N[C@@H](CCC(=O)O)C(=O)N[C@@H](CC(C)C)C(=O)N[C@@H](CC(N)=O)C(=O)N[C@@H](CC(C)C)C(=O)N[C@@H](CCC(=O)O)C(=O)N[C@@H](CC(C)C)C(=O)N[C@@H](CC(N)=O)C(=O)N[C@@H](CC(C)C)C(=O)N[C@@H](CCC(=O)O)C(=O)N[C@@H](CC(C)C)C(N)=O [NLEL12, Ac-NLELNLELNLEL-NH2] (Ac-NLELNLELNLEL-NH2) | exhibited thixotropic properties | exhibit sheer thinning | exhibit sheer thinning | about −3 | −3 | – | – | increased after DMEM treatment | increased after DMEM treatment | mucosal aggregation was not observed | clear/transparent
